2 compounds from patent US5081116A, “Cephalosporin derivatives” (Yamanouchi Pharmaceutical Co., Ltd., priority 1989, dated 1992) can be followed below.

One data set relates to CAY 1104. Briefly: Minimum growth inhibition concentration (antimicrobial activity). The data set is classed as cell-based. As to conditions: Enterobacter Faecalis CAY 1104. From the text:
(§1) The antimicrobial activity of the 7-[2-(2-amino-4-thiazolyl)-2-(hydroxyimino)acetamido]-3-(1,3-dithiolan-2-yl)-3-cephem-4-carboxylic acid which is such that A of the compounds of the general formula is the hydrogen atom (Compound of Example 1) is shown in Table 1.
(§2) (Minimum Growth Inhibition Concentration, γ/ml)

Data set [1] deals with Staphylococcus epidermidis IID 866. The description is as above. The data set is classed as cell-based. Particulars: IID866.
Source text: as §1, §2

Data set [2] relates to Klebsiella pneumoniae ATCC 10031. Described as above. As to conditions: ATCC10031. Type of data set: cell-based.
Source text: as §1, §2

Another data set relates to Escherichia coli 0-1. The description is as above. Type of data set: cell-based. Particulars: 01.
Source text: as §1, §2

In data set [3] the test system is Staphylococcus aureus FDA 209P JC-1. The data set is described as above. As to conditions: FDA209P. The data set is classed as cell-based.
Source text: as §1, §2

Data set [4] is described as follows: Absorption rate from the digestive tract (urinary and biliary recovery after oral administration). The data set is classed as in vivo. Particulars: rat, 50 mg/kg, bioassay. The procedure:
Further, the absorption rate of the compound of the general formula (I) wherein A is the 1-acetoxyethyl group (Compound of Example 2) from the digestive tract is shown as follows together with the testing method therefor.
An ether-anesthetized rat was fixed with the belly upside and a polyethylene tube was inserted into the bile-duct. The urine was collected from the same rat. After the test compound was orally administered at 50 mg/kg, urine and bile samples were collected within 0-6 hours and also within 6-24 hours. The amounts recovered in the urine and the bile within 24 hours were determined by measuring the test compound concentrations in the urine and the bile by a bioassay method using the standard solution of the test compound prepared with M/15 phosphate buffer.

Values after ≈ are worked out from the molar mass of the structure shown. Like-named read-outs stand apart in the source and are kept apart here.

Consider `Nc1nc(/C(=N/O)C(=O)NC2C(=O)N3C(C(=O)O)=C(C4SCCS4)CS[C@H]23)cs1` (some centres unmarked) [Example 1, (Z)-7-[2-(2-amino-4-thiazolyl)-2-(hydroxyimino)acetamido]-3-(1,3-dithiolan-2-yl)3-cephem-4-carboxylic acid], for which the MIC (in general, the lowest concentration found to suppress growth) in the data set on CAY 1104 was determined as 3.13 µg/mL (≈ 6.61 µM); in data set [1] it was 0.39 µg/mL (≈ 0.824 µM); in data set [2], 0.78 µg/mL (≈ 1.65 µM); with Escherichia coli 0-1, 0.39 µg/mL (≈ 0.824 µM); in data set [3], 0.39 µg/mL (≈ 0.824 µM).
Take `CC(=O)OC(C)OC(=O)C1=C(C2SCCS2)CS[C@@H]2C(NC(=O)/C(=N\O)c3csc(N)n3)C(=O)N12` (some centres unmarked) [Example 2, 1-acetoxyethyl (Z)-7-[2-(2-amino-4-thiazolyl)-2-(hydroxyimino)acetamido]-3-(1,3-dithiolan-2-yl)-3-cephem-4-carboxylate]: the dose excreted at 24 h in data set [4] (bile, read-out: Recovery Rate (%) within 24 hours In the Bile) came out at 8.5%; in data set [4] (urine, read-out: Recovery Rate (%) within 24 hours In the Urine) it was 14.1%; in data set [4] (urine and bile, urine + bile, read-out: Recovery Rate (%) within 24 hours Total), 22.6%.
